Assay results taken from US20240148821A1, “PHARMACEUTICAL USE OF CYCLIC PEPTIDE COMPOUND” (CHUGAI SEIYAKU KABUSHIKI KAISHA, priority 2021, published 2024).
Bridge positions count the residues as written; N and C are the ends. Square brackets hold non-standard residues; d marks the D form. Peptide text beside a SMILES is read from it. * marks the point of attachment. hPhe(3-Cl-4-CF3) = N[C@@H](CCc1ccc(C(F)(F)F)c(Cl)c1)C(=O)O; NMePhe(4-CF3) = CN[C@@H](Cc1ccc(C(F)(F)F)cc1)C(=O)O; 3Oxa8azabicyclo(3.2.1)octane = C1CC2COCC1N2*; NEtPhe(4-Me) = CCN[C@@H](Cc1ccc(C)cc1)C(=O)O; NMePhe(4-Me) = CN[C@@H](Cc1ccc(C)cc1)C(=O)O; NMeAla(cPent) = CN[C@@H](CC1CCCC1)C(=O)O; NMeGly(cPent) = CN[C@H](C(=O)O)C1CCCC1; Gly(cPent) = N[C@H](C(=O)O)C1CCCC1; NMeCha = CN[C@@H](CC1CCCCC1)C(=O)O; NMehLeu = CN[C@@H](CCC(C)C)C(=O)O; NEtLeu = CCN[C@@H](CC(C)C)C(=O)O; NMeI = CC[C@H](C)[C@H](NC)C(=O)O; X17 = FC1(F)CN(*)CC(F)(F)C1(F)F; NMeD = CN[C@@H](CC(=O)O)C(=O)O; NMeL = CN[C@@H](CC(C)C)C(=O)O; d(β3hA) = C[C@@H](N)CC(=O)O; Azetidin(1-yl) = C1CN(*)C1; NMeS = CN[C@@H](CO)C(=O)O; Morpholide = C1CN(*)CCO1; NMeA = CN[C@@H](C)C(=O)O; Ac5c = NC1(C(=O)O)CCCC1; Aze = O=C(O)[C@@H]1CCN1; Sar = CNCC(=O)O; Propyl = CCC*

Each molecule was assayed against protein-protein interaction between Kras and SOS1 (biotin-tagged human Kras loaded with GDP, His-tagged human SOS1) (Homo sapiens (Human), UniProt P01116, G12D) (assay: Protein-protein interaction inhibition between Kras and SOS1 (KrasG12D-SOS PPI) using AlphaScreen). Details: AlphaScreen; biotin-tagged human Kras loaded with GDP, His-tagged human SOS1; read-out: KRAS G12D-SOS PPI IC50.
Assay type: biochemical

Row | SMILES | IC50 [nM]
1 | CCCOC[C@H]1C(=O)N(C)CC(=O)N[C@@H](CCc2ccc(C(F)(F)F)c(Cl)c2)C(=O)N2CCC[C@H]2C(=O)NC2(CCCC2)C(=O)N(C)[C@@H](C2CCCC2)C(=O)N(C)[C@H](C(=O)N2C3CCC2COC3)CC(=O)N(CC)[C@@H](CC(C)C)C(=O)N[C@@H]([C@@H](C)CC)C(=O)N[C@@H](C)C(=O)N2CC[C@H]2C(=O)N1C [Compound 1167] ([NEtLeu]IA[Aze][NMeS](Propyl)[Sar][hPhe(3-Cl-4-CF3)]P[Ac5c][NMeGly(cPent)][NMeD]-{3Oxa8azabicyclo(3.2.1)octane}; lactam N-11) | 8.7
2 | CC[C@H](C)[C@@H]1NC(=O)[C@H](CCC(C)C)N(C)C(=O)C[C@@H](C(=O)N2CCOCC2)N(C)C(=O)[C@H](C2CCCC2)N(C)C(=O)C2(CCCC2)NC(=O)[C@@H]2CCCN2C(=O)[C@H](CCc2ccc(C(F)(F)F)c(Cl)c2)NC(=O)CN(C)C(=O)[C@H](CC2CCCCC2)N(C)C(=O)[C@@H]2CCN2C(=O)[C@H](C)NC1=O [Compound 1171] ([NMehLeu]IA[Aze][NMeCha][Sar][hPhe(3-Cl-4-CF3)]P[Ac5c][NMeGly(cPent)][NMeD]-Morpholide; lactam N-11) | 0.99
3 | CC[C@H](C)[C@@H]1NC(=O)[C@H](CC2CCCC2)N(C)C(=O)C[C@@H](C(=O)N2CCOCC2)N(C)C(=O)[C@H](C2CCCC2)N(C)C(=O)C2(CCCC2)NC(=O)[C@@H]2CCCN2C(=O)[C@H](CCc2ccc(C(F)(F)F)c(Cl)c2)NC(=O)CN(C)C(=O)[C@H](CC2CCCCC2)N(C)C(=O)[C@@H]2CCN2C(=O)[C@H](C)NC1=O [Compound 1176] ([NMeAla(cPent)]IA[Aze][NMeCha][Sar][hPhe(3-Cl-4-CF3)]P[Ac5c][NMeGly(cPent)][NMeD]-Morpholide; lactam N-11) | 0.8
4 | CCCOC[C@H]1C(=O)N(C)CC(=O)N[C@@H](CCc2ccc(C(F)(F)F)c(Cl)c2)C(=O)N2CCC[C@H]2C(=O)NC2(CCCC2)C(=O)N(C)[C@@H](C2CCCC2)C(=O)N(C)[C@H](C(=O)N2C3CCC2COC3)CC(=O)N(CC)[C@@H](CC(C)C)C(=O)N[C@@H]([C@@H](C)CC)C(=O)N(C)[C@@H](C)C(=O)N2CC[C@H]2C(=O)N1C [Compound 1193] ([NEtLeu]I[NMeA][Aze][NMeS](Propyl)[Sar][hPhe(3-Cl-4-CF3)]P[Ac5c][NMeGly(cPent)][NMeD]-{3Oxa8azabicyclo(3.2.1)octane}; lactam N-11) | 2.1
5 | CC[C@H](C)[C@@H]1NC(=O)[C@H](CC(C)C)N(CC)C(=O)C[C@@H](C(=O)N2CCC2)N(C)C(=O)[C@H](C2CCCC2)N(C)C(=O)C2(CCCC2)NC(=O)[C@@H]2CCCN2C(=O)[C@H](CCc2ccc(C(F)(F)F)c(Cl)c2)NC(=O)CN(C)C(=O)[C@H](CC2CCCCC2)N(C)C(=O)[C@@H]2CCN2C(=O)[C@H](C)N(C)C1=O [Compound 1198] ([NEtLeu]I[NMeA][Aze][NMeCha][Sar][hPhe(3-Cl-4-CF3)]P[Ac5c][NMeGly(cPent)][NMeD]-{Azetidin(1-yl)}; lactam N-11) | 1.2
6 | CC[C@H](C)[C@@H]1NC(=O)[C@H](CC(C)C)N(C)C(=O)C[C@@H](C)NC(=O)[C@H](C2CCCC2)NC(=O)C2(CCCC2)NC(=O)[C@@H]2CCCN2C(=O)[C@H](CCc2ccc(C(F)(F)F)c(Cl)c2)NC(=O)CN(C)C(=O)[C@H](Cc2ccc(C)cc2)N(C)C(=O)[C@@H]2CCN2C(=O)[C@H](C)N(C)C1=O [Compound 1213] (cyclo([Ac5c][Gly(cPent)][d(β3hA)][NMeL]I[NMeA][Aze][NMePhe(4-Me)][Sar][hPhe(3-Cl-4-CF3)]P)) | 17
7 | CC[C@H](C)[C@@H]1NC(=O)[C@H](CCC(C)C)N(C)C(=O)C[C@@H](C(=O)N2CCOCC2)N(C)C(=O)[C@H](C2CCCC2)N(C)C(=O)C2(CCCC2)NC(=O)[C@@H]2CCCN2C(=O)[C@H](CCc2ccc(C(F)(F)F)c(Cl)c2)NC(=O)CN(C)C(=O)[C@H](C2CCCC2)N(C)C(=O)[C@@H]2CCN2C(=O)[C@H](C)NC1=O [Compound 1223] ([NMehLeu]IA[Aze][NMeGly(cPent)][Sar][hPhe(3-Cl-4-CF3)]P[Ac5c][NMeGly(cPent)][NMeD]-Morpholide; lactam N-11) | 1.2
8 | CC[C@H](C)[C@@H]1NC(=O)[C@H](CC(C)C)N(CC)C(=O)C[C@@H](C(=O)N2CCOCC2)N(C)C(=O)[C@H]([C@@H](C)CC)N(C)C(=O)C2(CCCC2)NC(=O)[C@@H]2CCCN2C(=O)[C@H](CCc2ccc(C(F)(F)F)c(Cl)c2)NC(=O)CN(C)C(=O)[C@H](Cc2ccc(C(F)(F)F)cc2)N(C)C(=O)[C@@H]2CCN2C(=O)[C@H](C)NC1=O [Compound 1233] ([NEtLeu]IA[Aze][NMePhe(4-CF3)][Sar][hPhe(3-Cl-4-CF3)]P[Ac5c][NMeI][NMeD]-Morpholide; lactam N-11) | 2.5
9 | CC[C@H](C)[C@@H]1NC(=O)[C@H](CC(C)C)N(C)C(=O)C[C@@H](C(=O)N2C3CCC2COC3)N(C)C(=O)[C@H](C2CCCC2)N(C)C(=O)C2(CCCC2)NC(=O)[C@@H]2CCCN2C(=O)[C@H](CCc2ccc(C(F)(F)F)c(Cl)c2)NC(=O)CN(C)C(=O)[C@H](Cc2ccc(C)cc2)N(CC)C(=O)[C@@H]2CCN2C(=O)[C@H](C)N(C)C1=O [Compound 1236] ([NMeL]I[NMeA][Aze][NEtPhe(4-Me)][Sar][hPhe(3-Cl-4-CF3)]P[Ac5c][NMeGly(cPent)][NMeD]-{3Oxa8azabicyclo(3.2.1)octane}; lactam N-11) | 7.3
10 | CCCOC[C@H]1C(=O)N(C)CC(=O)N[C@@H](CCc2ccc(C(F)(F)F)c(Cl)c2)C(=O)N2CCC[C@H]2C(=O)NC2(CCCC2)C(=O)N(C)[C@@H](C2CCCC2)C(=O)N(C)[C@H](C(=O)N2C3CCC2COC3)CC(=O)N(C)[C@@H](CC2CCCC2)C(=O)N[C@@H]([C@@H](C)CC)C(=O)N(C)[C@@H](C)C(=O)N2CC[C@H]2C(=O)N1C [Compound 1251] ([NMeAla(cPent)]I[NMeA][Aze][NMeS](Propyl)[Sar][hPhe(3-Cl-4-CF3)]P[Ac5c][NMeGly(cPent)][NMeD]-{3Oxa8azabicyclo(3.2.1)octane}; lactam N-11) | 2.6
11 | CC[C@H](C)[C@@H]1NC(=O)[C@H](CC(C)C)N(CC)C(=O)C[C@@H](C(=O)N2CCC2)N(C)C(=O)[C@H](C2CCCC2)N(C)C(=O)C2(CCCC2)NC(=O)[C@@H]2CCCN2C(=O)[C@H](CCc2ccc(C(F)(F)F)c(Cl)c2)NC(=O)CN(C)C(=O)[C@H](CC2CCCCC2)N(C)C(=O)[C@@H]2CCN2C(=O)[C@H](C)NC1=O [Compound 1262] ([NEtLeu]IA[Aze][NMeCha][Sar][hPhe(3-Cl-4-CF3)]P[Ac5c][NMeGly(cPent)][NMeD]-{Azetidin(1-yl)}; lactam N-11) | 1.3
12 | CC[C@H](C)[C@@H]1NC(=O)[C@H](CC(C)C)N(C)C(=O)C[C@@H](C(=O)N2CC(F)(F)C(F)(F)C(F)(F)C2)NC(=O)[C@H]([C@@H](C)CC)N(C)C(=O)C2(CCCC2)NC(=O)[C@@H]2CCCN2C(=O)[C@H](CCc2ccc(C(F)(F)F)c(Cl)c2)NC(=O)CN(C)C(=O)[C@H](CC2CCCCC2)N(C)C(=O)CN(C)C(=O)CN(C)C1=O [Compound 1265] ([NMeL]I[Sar][Sar][NMeCha][Sar][hPhe(3-Cl-4-CF3)]P[Ac5c][NMeI]D-X17; lactam N-11) | 280
13 | CC[C@H](C)[C@@H]1NC(=O)[C@H](CC(C)C)N(CC)C(=O)C[C@@H](C(=O)N2CCOCC2)N(C)C(=O)[C@H](C2CCCC2)N(C)C(=O)C2(CCCC2)NC(=O)[C@@H]2CCCN2C(=O)[C@H](CCc2ccc(C(F)(F)F)c(Cl)c2)NC(=O)CN(C)C(=O)[C@H](CC2CCCCC2)N(C)C(=O)[C@@H]2CCN2C(=O)[C@H](C)NC1=O [Compound 1266] ([NEtLeu]IA[Aze][NMeCha][Sar][hPhe(3-Cl-4-CF3)]P[Ac5c][NMeGly(cPent)][NMeD]-Morpholide; lactam N-11) | 1.2
